Earlier results on one molecule are cited in paper PMC5085262 (Chemical Science, 2016).

For this data set the following is noted: no reference given.

Regarding `Oc1cccc2cccnc12` [Quin, 8-hydroxyquinoline], the “pKa of the free ligand (phenolate group)” value is listed as “≈ 9.9”.
